Experimental data from patent US6255497A, “Method for the inhibition of ALDH-I useful in the treatment of alcohol dependence or alcohol abuse” (priority 1998, dated 2001).
Converted amounts (≈) assume the structure as drawn. Like-named read-outs stand apart in the source and are kept apart here.

How the values were obtained:
human class IV ADH = details: cited from earlier work
ALDH-II [1] = molecular target: T1, ALDH-II (Homo sapiens, UniProt P00352); assay: Competitive inhibition of ALDH-II with acetaldehyde as substrate; type: biochemical; parameters: A liver sample (50 g wet weight) with the usual Caucasian ALDH phenotype (both ALDH-I and ALDH-II present); from tissue; host or cells: human liver (autopsy), purified by CM-52, AMP-agarose and DEAE HPLC; details: acetaldehyde as substrate, competitive; read-out: Ki, ALDH-II
T1 sequence (P00352 1-501): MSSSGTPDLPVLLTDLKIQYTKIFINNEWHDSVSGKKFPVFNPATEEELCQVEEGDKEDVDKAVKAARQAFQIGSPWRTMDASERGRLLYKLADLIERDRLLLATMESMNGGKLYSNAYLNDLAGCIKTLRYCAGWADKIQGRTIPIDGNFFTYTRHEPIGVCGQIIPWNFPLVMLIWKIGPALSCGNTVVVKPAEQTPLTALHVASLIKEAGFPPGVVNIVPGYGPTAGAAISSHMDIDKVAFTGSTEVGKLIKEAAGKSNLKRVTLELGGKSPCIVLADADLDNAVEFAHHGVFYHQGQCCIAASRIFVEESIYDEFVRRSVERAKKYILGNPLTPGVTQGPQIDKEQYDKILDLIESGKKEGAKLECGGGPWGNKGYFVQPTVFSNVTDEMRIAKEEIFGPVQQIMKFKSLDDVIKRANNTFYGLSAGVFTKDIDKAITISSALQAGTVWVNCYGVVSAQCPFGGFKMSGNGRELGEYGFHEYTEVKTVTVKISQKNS

ALDH-I [2] = molecular target: T2, ALDH-I (Homo sapiens, UniProt P05091); assay: Competitive inhibition of ALDH-I with acetaldehyde as substrate, progress curve method; type: biochemical; parameters: A liver sample (50 g wet weight) with the usual Caucasian ALDH phenotype (both ALDH-I and ALDH-II present); from tissue; host or cells: human liver (autopsy), purified by CM-52, AMP-agarose and DEAE HPLC
T2 sequence (P05091 18-517): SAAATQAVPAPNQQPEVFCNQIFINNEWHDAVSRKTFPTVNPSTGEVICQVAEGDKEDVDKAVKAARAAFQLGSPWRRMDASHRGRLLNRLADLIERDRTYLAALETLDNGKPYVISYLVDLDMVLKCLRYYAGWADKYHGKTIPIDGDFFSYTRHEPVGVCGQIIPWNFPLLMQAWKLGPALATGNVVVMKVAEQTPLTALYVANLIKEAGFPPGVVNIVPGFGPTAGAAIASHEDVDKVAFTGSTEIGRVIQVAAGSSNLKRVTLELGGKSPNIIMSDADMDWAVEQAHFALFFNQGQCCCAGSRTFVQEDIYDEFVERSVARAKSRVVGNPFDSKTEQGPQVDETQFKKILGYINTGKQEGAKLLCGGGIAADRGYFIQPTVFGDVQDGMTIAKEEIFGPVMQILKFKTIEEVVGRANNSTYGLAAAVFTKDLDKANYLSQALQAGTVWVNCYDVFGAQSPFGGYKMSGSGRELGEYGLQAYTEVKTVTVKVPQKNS
Source text: The progress curve method described by Klyosov and Berezin, 1972, Biokhimiya (Engl. transl.), Plenum, New York, 22: 141-151, was used instead of the initial velocilty method of Example 3 to obtain precis* values for inhibition constants for ALDH-I with acetaldehyde as substrate and the very tight binding novel inhibitors (Table VI).

[3] = two human volunteers, after 60 hours; cited from earlier work
ADH isozymes = assay: Inhibition of ADH; type: biochemical, human
ALDH-I or ALDH-II = assay: Survey of structurally related compounds for ALDH inhibition; type: biochemical, human
Method: For the study of the inhibition of ALDH-I by structurally related compounds to generate the data shown in Tables IV and V, each individual compound was dissolved at different concentrations in methanol and was added to the assay medium as 10 μL aliquots. For controls, 10 […] of methanol was added to the assay medium. In a standard ALDH-I assay, the assay medium contains 0.1 M sodium pyrophosphate pH 9.5, 0.15 M KCl, 1 mM NAD^+, 1% methanol, 5 μM acetaldehyde, 5-10 nM ALDH-I and various concentrations of inhibitor. The enzyme reaction rates were measured by monitoring the production of NADH at 340 nm (ε=6.22 mM^-1 cm^-1) with a Varian Cary 219 spectrophotometer thermostated at 25° C. (Fong et al., 1989, supra). The inhibition of ALDH-I by the inhibitors was calculated as: [formula]
where Vo is the enzyme reaction rate measured in the absence of inhibitor, and where Vi is the enzyme reaction rate measured in the presence of inhibitor. […] IC50 values are related to the underlying Ki values.

[4] = intravenous, mice; cited from earlier work
[5] = Plasma drug concentration versus time after a single 10 mg dose; type: in vivo; details: golden hamster
Source text: Five hours later the plasma concentrations of both inhibitors were still above […], far above their competitive inhibition constants for ALDH-I.

physchem = details: water
golden hamsters = assay: Dose effect on free choice ethanol intake in golden hamsters, i.p.; type: in vivo, golden hamster
Source text: It is common practice in quantitative drug studies with rodents to use intraperitoneal (i.p.) administration to deliver drug doses accurately (Goodman and Gilman, 1975, The Pharmacological Basis of Therapeutics, 5th ed., Macmillan, N.Y., p. 8). In particular, this method avoids variability introduced by technical difficulties of oral administration via feeding (full versus empty stomach, etc.), variations in drug transport in the gastrointestinal tract (variations in intestinal fauna and flora, individual variations in absorption rate expected of outbred animals, etc.) and other factors. […] As a control 1 ml of sterile saline was injected i.p. daily during the baseline period (typically 7-9 days) that establishes drinking preference without the drug. Saline injection i.p. had no effect on the drinking behavior of golden hamsters. Ethanol was provided as a 20% solution. Hamsters could be used more than once (but were not used more than three times) in a cycle of baseline saline injections followed by drug injections, each cycle with the drug at a different dose.
The response to daidzin treatment was computed as:
% Response=(Vo -Vd)×100/Vo

alcohol consumption [6] = details: placebo-controlled clinical trials; cited from earlier work
ALDH-II [7] = details: high Km cytosolic isozyme; cited from earlier work
[8] = cited from earlier work
ALDH-I [9] = details: cited from earlier work
euphoria = details: double-blind study in humans; cited from earlier work
ALDH [10] = details: cited from earlier work
[11] = tested on: dopamine-β-hydroxylase, microsomal mixed function oxidases and other sulfhydryl-containing enzymes; details: cited from earlier work
[12] = tested on: class I ADH isozymes containing at least one γ-subunit; details: cited from earlier work
[13] = experimental animals; cited from earlier work
alcohol consumption [14] = details: rat, in vivo; cited from earlier work
ALDH-II [15] = details: cited from earlier work
ALDH-I [16] = details: cited from earlier work; remark: listed apart in the source
ALDH [17] = details: cited from earlier work; remark: listed apart in the source
ALDH-I [18] = details: via reactive product of catabolism; cited from earlier work
ALDH-II [19] = details: via reactive product of catabolism; cited from earlier work
[20] = substrate: C=O; assay: purified protein, by the assay type; details: pH 9.5; 25.0 °C
Method: The inhibition kinetics were studied by the initial velocity method (Dixon and Webb, 1979, Enzymes, 3rd ed., Longman, Great Britain). […] The initial reaction rates were measured in a pH 9.5 assay medium 0.1 11 in glycine-NaOH, 0. […] The enzyme reaction rates were followed by monitoring the production of NADH at 340 nm (ε-6.22 mM^-1 cm^-1) with a Varian Cary 219 spectrophotometer thermostated at 25° C. The kinetic data were analyzed by standard graphical methods.

In the case of CCO [ethanol], the Km (human class IV ADH) is listed as 41 mM.

For CCOc1ccc2c(=O)c(-c3ccc(O)cc3)coc2c1 [Daidzein 7-ethyl ether], the Ki (ALDH-II [1]) was 440 nM and the Ki (ALDH-I [2]) was 38 nM.

In the case of O=c1c(-c2ccc(O)cc2)coc2cc(O)ccc12 [Daidzein], the “excretion in urine and feces” value [3] is given as “little daidzein had appeared in urine and feces after 60 hours”, the ADH inhibition (ADH isozymes) is given as “selectively inhibits certain ADH isozymes” and the “ALDH inhibition” value (ALDH-I or ALDH-II) is given as “does not inhibit ALDH”. The half-life [4] was “on the order of one hour”.

With O=C(O)CCCCCCOc1ccc2c(=O)c(-c3ccc(O)cc3)coc2c1 [Daidzein 7-(ω-carboxyhexyl) ether, daidzein 7-(ω-carboxyhexyl) ether] the “time to maximal plasma concentration after injection” value ([5]; i.p.) was “within about an hour after injection”, the Cmax ([5]; plasma, ip, read-out: maximal plasma concentration) was 4.5 µM and the Ki (ALDH-II [1]) was 215 nM. For the same molecule, the solubility (physchem) was 13 mM (≈ 4970 µg/mL), the Ki (ALDH-I [2]) was 9 nM and the “suppression of alcohol intake, hamster B7” value (golden hamsters; 10 mg/day, i.p., trained hamster B7) was 69%. For the same molecule, the “suppression of alcohol intake, hamster E23” value (golden hamsters; 10 mg/day, i.p., trained hamster E23) was 72% and the “potency relative to daidzin, suppression of alcohol intake” value (golden hamsters; assuming a dose response slope similar to that of daidzin) was “not more than twice as potent as daidzin”.

For CCN(CC)C(=S)SSC(=S)N(CC)CC [disulfiram, tetraethylthiuram disulfide], the “reduction of alcohol consumption vs placebo” value (alcohol consumption [6]) is listed as “no more effective than the placebo control”, the “inhibition of ALDH-II in vitro” value (ALDH-II [7]) is listed as “potent inhibitor” and the “skin toxicity and neuropathy” value ([8]; in vivo) is listed as “peripheral neuropathy”. The “inhibition of ALDH-I in vitro” value (ALDH-I [9]; major mitochondrial isozyme) was “only slightly”, the “inhibition of ALDH-I in vitro in presence of mercaptans” value (ALDH-I [9]; trace amounts of 2-mercaptoethanol or methanethiol) was “inactivated” and the “effect with low doses of alcohol” value (euphoria) was “induces and enhances euphoria”. For the same molecule, the “reversibility of ALDH inhibition in vivo” value (ALDH [10]) was “irreversible”, the “time over which ALDH is inhibited in vivo” value (ALDH [10]) was 12 h and the “time to restoration of ALDH activity” value (ALDH [10]; in vivo, de novo enzyme synthesis) was no less than 6 days. For the same molecule, the “specificity of enzyme inhibition” value [11] was “broadly acting but non-specific inhibitor”.

For C[C@]12CC[C@H]3[C@@H](CCC4=CC(=O)CC[C@@]43C)[C@@H]1CC[C@@H]2O [testosterone], the “selective inhibition of γ-subunit class I ADH” value [12] is given as “selectively inhibited”.

In the case of N#CN [cyanamide], the antithyroid activity [13] is listed as “significant antithyroid activity”, the “alcohol consumption after alcohol deprivation” value (alcohol consumption [14]) is listed as “increase in alcohol consumption” and the liver injury ([8]; alcoholics treated with cyanamide) is listed as “liver injury, including generation of ground-glass inclusion bodies in liver cells”. The cardiotoxic effects ([8]; in vivo) was “cardiotoxic effects, including hypotension and even cardiac death”, the “inhibition of ALDH-II in vitro” value (ALDH-II [15]) was “Neither ALDH-I (the low Km isozyme) nor ALDH-II (the high Km isozyme) are inhibited in vitro” and the “inhibition of ALDH-I in vitro” value (ALDH-I [16]) was “Neither ALDH-I (the low Km isozyme) nor ALDH-II (the high Km isozyme) are inhibited in vitro”. For the same molecule, the “reversibility of ALDH inhibition” value (ALDH [17]; in vivo) was “reversible”, the “time of maximal ALDH inhibition after drug administration” value (ALDH [17]; in vivo) was 1 to 2 h and the “restoration of ALDH activity within 24 hours” value (ALDH [17]; within 24 hours) was 80%. For the same molecule, the “effect with low doses of alcohol” value (euphoria) was “induces and enhances euphoria”, the “inhibition of ALDH-I in vivo” value (ALDH-I [18]) was “inhibits both isozymes” and the “inhibition of ALDH-II in vivo” value (ALDH-II [19]) was “inhibits both isozymes”.

B1: human ALDH-II (Homo sapiens) (protein)
chain: MSSSGTPDLPVLLTDLKIQYTKIFINNEWHDSVSGKKFPVFNPATEEELCQVEEGDKEDVDKAVKAARQAFQIGSPWRTMDASERGRLLYKLADLIERDRLLLATMESMNGGKLYSNAYLNDLAGCIKTLRYCAGWADKIQGRTIPIDGNFFTYTRHEPIGVCGQIIPWNFPLVMLIWKIGPALSCGNTVVVKPAEQTPLTALHVASLIKEAGFPPGVVNIVPGYGPTAGAAISSHMDIDKVAFTGSTEVGKLIKEAAGKSNLKRVTLELGGKSPCIVLADADLDNAVEFAHHGVFYHQGQCCIAASRIFVEESIYDEFVRRSVERAKKYILGNPLTPGVTQGPQIDKEQYDKILDLIESGKKEGAKLECGGGPWGNKGYFVQPTVFSNVTDEMRIAKEEIFGPVQQIMKFKSLDDVIKRANNTFYGLSAGVFTKDIDKAITISSALQAGTVWVNCYGVVSAQCPFGGFKMSGNGRELGEYGFHEYTEVKTVTVKISQKNS
Work on B1 yielded a Km [20] of 6.6 mM.
